Values quoted from earlier work in US20060251690A1, “Skin enrichment using CoQ10 as the delivery system” (Zymes, LLC, priority 2005, published 2006).
Like-named read-outs stand apart in the source and are kept apart here. One block for each compound: values may come before it.

What was measured:
[1] = after chronic topical use, combined with other fat and water soluble ingredients
[2] = not given; remark: listed apart in the source
[3] = human skin (in vitro)
[4] = not given; remark: listed apart in the source

Structure (SMILES): O=C1O[C@H]([C@@H](O)CO)C(O)=C1O [vitamin C]
half life (autoxidation named as cause): 0.5 h

Structure (SMILES): COC1=C(OC)C(=O)C(C/C=C(\C)CC/C=C(\C)CC/C=C(\C)CC/C=C(\C)CC/C=C(\C)CC/C=C(\C)CC/C=C(\C)CC/C=C(\C)CC/C=C(\C)CCC=C(C)C)=C(C)C1=O [CoQ10, 2,3 dimethoxy-5 methyl-6 decaprenyl benzoquinone]
half life: > 30 h

absorption of adapalene [1]: < 0.25 ng/mL
solubility in polar solvents such as ethanol ([2]; ethanol): only sparingly soluble
solubility in water ([2]; water): virtually insoluble
Structure (SMILES): COc1ccc(-c2ccc3cc(C(=O)O)ccc3c2)cc1C12CC3CC(CC(C3)C1)C2 [adapalene]

applied dose found in the epidermis and dermis [3]: Up to 10%
half-life after application [4]: 12 h
Structure (SMILES): O=C(O)CCCCCCCC(=O)O [azelaic acid]
